According to article PMC8121805, “Discovery of first-in-class inhibitors of ASH1L histone methyltransferase with anti-leukemic activity” (Nature Communications, 2021):
Values joined by “and” are separate entries in the source; they are usually repeats but may differ in a detail not shown here. Equal entries are not always repeated.

Tests used:
KOPN8 cells [1] = test: Annexin V apoptosis assay (flow cytometry); format: cell-based, human; conditions: 7 days
MV4;11 cells [2] = test: Flow cytometry of CD11B expression (differentiation); format: cell-based, human; conditions: for MV4;11 % CD11B+ cells: 7 days
Protocol: (§1) In addition, 1 × 10^5 cells per sample were stained with Zombie Aqua™ dye (1:100 dilution) for 15 min using the Zombie Aqua™ Fixable Viability Kit (Zombie Aqua™ Fixable Viability Kit, Biolegend®) […] and then for 30 min with an anti-CD11B-PE antibody (982606, ICRF44, Biolegend®) or anti-CD11B-Pacific Blue (101224, BD BioLegend) antibody at 1:50 dilution, according to the No-wash Sequential Staining Protocol described by the manufacturer (BioLegend, Zombie Aqua Fixable Viability Kit). Cells were washed twice with 500 µL PBS containing 1% FBS and resuspended in 200 µL PBS with 1% FBS.

KOPN8 cells [3] = test: as above; format: cell-based, human; conditions: 7 days
Protocol: as §1

SET2 cells = test: MTT cell viability assay; format: cell-based, human
Protocol: (§2) Human leukemia cells K562, MV4;11 and RS4;11 (purchased from ATCC) and KOPN8, MOLM13 (purchased from DSMZ) were cultured in RPMI 1640 (Invitrogen) supplemented with 10% heat inactivated (h.i.) FBS and 1% penicillin/streptomycin (Invitrogen). SET2 cells (purchased from DSMZ) were cultured in RPMI 1640 supplemented with 20% h.i. FBS and 1% penicillin/streptomycin. Cells were plated at 1 × 10^5 to 2 × 10^5 cells/mL depending on cell line and treated with 0.25% DMSO or varying concentrations of compounds and incubated at 37 °C, 5% CO2 incubator for 7 days. Media was changed on day 3 or 4 and compounds were resupplied. […] Cell suspensions (100 μL) were transferred to the 96-well plates for each sample in quadruplicate at the time of media change. At day 7, 10 µL of MTT reagent (M6494, Molecular Probes™) was added to each well of the 96 well plate and incubated at 37 °C for 4 h. The formazan was then solubilized by adding 100 µL acidified 10% SDS solution and incubated at 37 °C overnight. Plates were read for absorbance at 570 nm using a PHERAstar BMG microplate reader. The experiments were performed two times in quadruplicates with calculation of mean and SD for each condition. Data were analyzed in Prism 8.0.0 to obtain GI50 values.

RS4;11 cells = test: MTT cell viability assay; format: cell-based, human; conditions: 7 days
Protocol: as §2

[4] = Effect on normal hematopoiesis: complete blood counts and blood parameters
Protocol: At the end point of the experiment blood samples were collected, processed and analyzed for complete blood counts (CBC) and to assess populations of myeloid (CD11b + /Gr-1 + ), B- (B220 + /CD19 + ), and T- (CD3 + ) cells using flow cytometry. […] The analysis of CBC and other blood parameters was performed by the ULAM Animal Diagnostic Laboratory using Element HT5 (HESKA).
(a) Analysis of blood cell counts in
blood cells, RBC – red blood cells, NEU – neutrophiles, LYM – lymphocytes. MONO –
monocytes, EOS – eosinophils, BAS - basophils, PLT - platelets) and other blood parameters (Hgb
– Hemoglobin, HCT- Hematocrit, MCV – Mean corpuscular volume, MCH - Mean corpuscular
hemoglobin, MCHC - Mean corpuscular hemoglobin concentration, RDW – Red cell distribution
(1 picture or pasted object on this page, not shown here)

[5] = system: MLL fusion target genes in MOLM13 cells; test: Real time qRT-PCR gene expression; format: cell-based, human; set-up: key to MEIS1 expression / FLT3 expression / HOXA9 expression / MNDA expression / MEF2C expression / DLX2 expression: fold change vs DMSO-treated cells, normalized to HPRT1 (comparative Ct); conditions: for DLX2 expression / FLT3 expression / HOXA9 expression / MEF2C expression / MEIS1 expression / MNDA expression: MOLM13, 7 days, normalized to HPRT1, referenced to DMSO
Protocol: 0.5 × 10^6 – 3 × 10^6 cells from each sample were collected at days 7 or 8 of treatment, centrifuged at 211 xg, and RNA was extracted according to the RNeasy Mini Kit protocol (74106, Qiagen). Extracted RNA was quantified using Nanodrop 2000 UV-Vis spectrophotometer and 0.5–1 µg of total RNA was reverse transcribed into cDNA using High-Capacity cDNA Reverse Transcription Kit (4368814, Applied Biosystems™) according to the manufacturer’s protocol. Real-time PCR was performed using the CFX96 Touch Real-Time PCR Detection System (Bio-Rad). TaqMan Gene Expression Master Mix and TaqMan Gene Expression Assays were purchased from Applied Biosystems. Relative quantification of each gene transcript was carried out using the comparative Ct method as described in the Applied Biosystems User Bulletin no. 2. TaqMan Gene Expression Assays were used: HPRT1: Hs02800695_m1, DLX2: Hs00269993_m1, FLT3: Hs00174690_m1, HOXA9: Hs00365956_m1, MEF2C: Hs00231149_m1, MEIS1: Hs00180020_m1, MNDA: Hs00935905_m1.
Supplementary Figure 10. Effect of AS-nc on gene expression in MLL leukemia cells. (a, b) Quantitative RT-PCR performed in MOLM13 cells (a) or MV4;11 cells (b) after 7 days of treatment with AS-nc. Gene expression was normalized to HPRT1 and referenced to the DMSO treated cells. Representative data from two independent experiments, each performed in triplicates, […]

MV4;11 cells [6] = test: Annexin V apoptosis assay (flow cytometry); format: cell-based, human; conditions: for MV4;11 % Annexin V/PI+ cells: 7 days
[7] = Fig S12a, individual mice, AS-99 group

SMILES: CN1CC(C(=O)NCc2ccc3c(-c4cccc(C(N)=S)c4)cn(C4CCN(S(=O)(=O)C(F)(F)F)CC4)c3c2)C1 [AS-99]
- KOPN8 % Annexin V/PI+ cells (KOPN8 cells [1]; 1 uM): 4.46% and 5.06% and 4.65%
- KOPN8 % Annexin V/PI+ cells (KOPN8 cells [1]; 2 uM): 6.92% and 8.33% and 6.49%
- KOPN8 % Annexin V/PI+ cells (KOPN8 cells [1]; 3 uM): 6.23% and 7.5% and 8.51%
- KOPN8 % Annexin V/PI+ cells (KOPN8 cells [1]; 4 uM): 31.1% and 33%
- MV4;11 % CD11B+ cells (MV4;11 cells [2]; 3 uM): 3.77% and 4.48% and 6.27%
- MV4;11 % CD11B+ cells (MV4;11 cells [2]; 6 uM): 35.3% and 55.8% and 53.8%
- differentiation in MLL leukemia cells (MV4;11 cells [2]; MV4;11 and KOPN8): induced differentiation
- increased expression of the CD11B differentiation marker (MV4;11 cells [2]; MV4;11 and KOPN8): up to 50%
- KOPN8 % CD11B+ cells (KOPN8 cells [3]; 1 uM): 5.69% and 3.82% and 3.42%
- KOPN8 % CD11B+ cells (KOPN8 cells [3]; 2 uM): 7.78% and 8.76% and 7.98%
- KOPN8 % CD11B+ cells (KOPN8 cells [3]; 3 uM): 12.9% and 10.3% and 9.53%
- KOPN8 % CD11B+ cells (KOPN8 cells [3]; 4 uM): 24.5% and 25.6%
- GI50 (SET2 cells; Homo sapiens, SET-2, 168 h, SET2 (non MLL1-r), MTT, 7 days): > 12 µM
- % activity SET2 (SET2 cells; MTT, 7 days, log[compound] -4.92082): 96.0299% and 95.2049% and 87.6257% and 88.1928%
- % activity SET2 (SET2 cells; MTT, 7 days, log[compound] -5.22185): 99.0204% and 97.9376% and 92.5754% and 93.5035%
- % activity SET2 (SET2 cells; MTT, 7 days, log[compound] -5.52288): 97.5767% and 104.589% and 99.7938% and 98.0407%
- % activity SET2 (SET2 cells; MTT, 7 days, log[compound] -5.82391): 91.6473% and 94.4831% and 88.9662% and 87.9866%
- % activity SET2 (SET2 cells; MTT, 7 days, log[compound] -6.12494): 83.7071% and 89.6365% and 81.1807% and 83.8618%
- % activity SET2 (SET2 cells; MTT, 7 days, log[compound] -6.42597): 83.5525% and 88.76% and 84.5321% and 85.1508%
- % activity SET2 (SET2 cells; MTT, 7 days, log[compound] -6.727): 86.1304% and 85.9242% and 90.513% and 87.1101%
- effect on proliferation of SET2 cells (SET2 cells; leukemia cells without MLL1 translocations): no or limited effects at 10 µM or higher concentrations
- % activity RS4;11 (RS4;11 cells; log[compound] -4.92082): 2.655% and 2.343% and 2.187%
- % activity RS4;11 (RS4;11 cells; log[compound] -5.22185): 2.03% and 1.718% and 1.874% and 2.655%
- % activity RS4;11 (RS4;11 cells; log[compound] -5.52288): 64.3499% and 67.786% and 71.3784%
- % activity RS4;11 (RS4;11 cells; log[compound] -5.82391): 99.4924% and 89.8087% and 86.9973% and 90.4334%
- % activity RS4;11 (RS4;11 cells; log[compound] -6.12494): 82.4678% and 84.9668% and 84.4982% and 89.3401%
- % activity RS4;11 (RS4;11 cells; log[compound] -6.42597): 93.2448% and 101.679% and 103.397%
- GI50 (RS4;11 cells; Homo sapiens, 168 h, RS4;11 (MLL1-r)): 3.4 ± 0.1 µM
- BAS [4, 7]: 0.02 x 103/uL (2×) and 0.03 x 103/uL (4×) and 0.01 x 103/uL (2×) and 0 x 103/uL
- EOS [4, 7]: 270 µL⁻¹ and 470 µL⁻¹ and 320 µL⁻¹ and 390 µL⁻¹ and 650 µL⁻¹ and 300 µL⁻¹ and 100 µL⁻¹ and 450 µL⁻¹ and 360 µL⁻¹
- HCT [4, 7]: 41.9% and 39.7% and 28.7% and 46% and 40.3% and 29.4% and 10.7% and 42.8% and 41.4%
- HGB [4, 7]: 13.7 g/dL and 13.1 g/dL and 9.8 g/dL and 15.6 g/dL and 13.9 g/dL and 10.1 g/dL and 3.6 g/dL and 14.6 g/dL and 14 g/dL
- LYM [4, 7]: 4070 µL⁻¹ and 5890 µL⁻¹ and 4140 µL⁻¹ and 5390 µL⁻¹ and 6000 µL⁻¹ and 3920 µL⁻¹ and 1230 µL⁻¹ and 6280 µL⁻¹ and 5970 µL⁻¹
- MCH [4, 7]: 14.8 Pg and 15 Pg (2×) and 15.6 Pg (3×) and 14.9 Pg and 15.4 Pg and 16.2 Pg
- MCHC [4, 7]: 32.8 g/dL and 33.1 g/dL and 34.1 g/dL (2×) and 33.9 g/dL and 34.4 g/dL (2×) and 34 g/dL and 33.8 g/dL
- MCV [4, 7]: 45.2 fL (3×) and 45.4 fL and 45.8 fL and 44 fL and 43.6 fL and 45.7 fL and 48 fL
- MONO [4, 7]: 0.17 x 103/uL and 0.23 x 103/uL (2×) and 0.12 x 103/uL and 0.28 x 103/uL (2×) and 0.11 x 103/uL and 0.05 x 103/uL and 0.2 x 103/uL
- MPV [4, 7]: 5 fL (2×) and 5.5 fL and 5.9 fL and 5.1 fL and 5.4 fL (2×) and 5.6 fL and 4.8 fL
- NEU [4, 7]: 970 µL⁻¹ and 1680 µL⁻¹ and 1330 µL⁻¹ and 2070 µL⁻¹ and 1910 µL⁻¹ and 1210 µL⁻¹ and 630 µL⁻¹ and 1870 µL⁻¹ and 1770 µL⁻¹
- PLT [4, 7]: 1548 K/uL and 1435 K/uL and 1241 K/uL and 1545 K/uL and 1340 K/uL and 938 K/uL and 317 K/uL and 1303 K/uL and 1383 K/uL
- RBC [4, 7]: 9.27 M/uL and 8.74 M/uL and 6.26 M/uL and 10.46 M/uL and 9.24 M/uL and 6.5 M/uL and 2.36 M/uL and 9.37 M/uL and 8.63 M/uL
- RDW [4, 7]: 14.4% and 15.6% and 15.4% and 13.5% and 14.9% and 13.9% and 14.7% and 14.8% and 18.3%
- WBC [4, 7]: 5.5 k/uL and 8.3 k/uL and 5.92 k/uL and 8.1 k/uL and 8.87 k/uL and 5.55 k/uL and 2.01 k/uL and 8.91 k/uL and 8.33 k/uL
- blood counts and other blood parameters versus vehicle ([4]; normal mice, 30 mg/kg, i.p., q.d., 14 days): no significant difference
- DLX2 expression ([5]; 2 uM): 0.56 and 0.75 and 0.61
- FLT3 expression ([5]; 2 uM): 0.69 and 0.97 and 0.78
- HOXA9 expression ([5]; 2 uM): 0.72 and 0.91 and 0.9
- MEF2C expression ([5]; 2 uM): 0.67 and 0.89 and 0.83
- MEIS1 expression ([5]; 2 uM): 0.79 and 0.98 and 0.9
- MNDA expression ([5]; 2 uM): 1.83 and 1.84 and 1.74
- DLX2 expression ([5]; 4 uM): 0.44 and 0.5 and 0.58
- FLT3 expression ([5]; 4 uM): 0.67 and 0.76 and 0.61
- HOXA9 expression ([5]; 4 uM): 0.76 and 0.94 and 0.79
- MEF2C expression ([5]; 4 uM): 0.59 and 0.77 and 0.68
- MEIS1 expression ([5]; 4 uM): 0.89 and 0.77 and 0.75
- MNDA expression ([5]; 4 uM): 2.92 and 2.39 and 3.74
- DLX2 expression ([5]; 6 uM): 0.53 and 0.54 and 0.7
- FLT3 expression ([5]; 6 uM): 0.53 and 0.65 and 0.5
- HOXA9 expression ([5]; 6 uM): 0.69 and 0.9 and 0.7
- MEF2C expression ([5]; 6 uM): 0.48 and 0.65 and 0.64
- MEIS1 expression ([5]; 6 uM): 0.71 and 0.74 and 0.69
- MNDA expression ([5]; 6 uM): 3.99 and 3.93 and 2.86
- expression level of the MNDA differentiation marker ([5]; MOLM13 and MV4;11): substantial increase
- expression of MLL fusion target genes (MEF2C, DLX2, FLT3, HOXA9) ([5]; MOLM13 and MV4;11): dose-dependent downregulation
- MV4;11 % Annexin V/PI+ cells (MV4;11 cells [6]; 3 uM): 5.84% and 5.81% and 5.56%
- MV4;11 % Annexin V/PI+ cells (MV4;11 cells [6]; 4.5 uM): 21.9% and 12.8%
- apoptosis in the MLL leukemia cells (Annexin V positive cells) (MV4;11 cells [6]; MV4;11 and KOPN8): induced apoptosis
